Measurements reported in US9486536B2 (Immunomedics, Inc., priority 2013, dated 2016).

Columns and labels:
[1] = relative to doxorubicin; cited from earlier work
[2] = test system: moderately active SLE; test: open-label study in SLE patients
Procedure: An open-label, single-center study of patients with moderately active SLE (total British Isles Lupus Assessment Group (BILAG) score 6 to 12) is conducted. Patients receive dosages of epratuzumab-P2PDox (conjugated at a drug/antibody ratio of 3.5) of 10, 20, 40 and 60 mg conjugate i.v. every other week for 3 injections, repeated 4 months later. Evaluations include safety, SLE activity (BILAG), blood levels of B and T cells, and human anti-epratuzumab antibody (HAHA) titers.

[3] = test system: Daudi, Raji, Ramos and JVM-3 hematopoietic tumor lines; test: cytotoxicity of P2PDox-mAb conjugates to target cells; format: cell-based; conditions: not shown
Excerpt: The cytotoxicity of P2PDox-mAb conjugates to target cells was examined. hRS7-P2PDox and hMN-15-P2PDox were cytotoxic to MDA-MB-468, AG S, NCI-N87 and Capan-1 solid tumor cell lines (not shown). hMN-14-P2PDox was cytotoxic to Capan-1, BxPC-3 and AsPC-1 human pancreatic tumor lines and AGS, NCI-N87 and LS147T human gastric and colonic tumor lines (not shown). hLL2-P2PDOx was cytotoxic to Daudi, Raji, Ramos and JVM-3 hematopoietic tumor lines (not shown). IC50 values for the conjugates were in the nanomolar concentration range (not shown).

[4] = biological target: CD22 (Homo sapiens, UniProt P20273); test: antibody binding to target antigen after conjugation
[5] = test system: Non-Hodgkin's Lymphoma (NHL); test: treatment of NHL patients; format: in vivo, human
Procedure: A P2PDox-epratuzumab ADC is prepared as described in Examples 1 and 3 above. Seventeen patients with previously untreated or relapsed NHL receive 4 doses of 70, 100 or 150 mg P2PDox-epratuzumab injected i.v. every two weeks. Responses are assessed by CT scans, with other evaluations including adverse event, B-cell blood levels, serum epratuzumab levels and human anti-epratuzumab (HAHA) titers.

[6] = 4 doses of 70, 100 or 150 mg i.v. every two weeks, 17 patients

| Compound | cytotoxicity, times that of doxorubicin [1] | decrease of total BILAG scores ([2]; all patients, 10, 20, 40 and 60 mg i.v. every other week for 3 injections, drug/antibody ratio 3.5) | patients with improvement in at least one BILAG B- or C-level disease activity ([2]; at 6, 10 and 18 weeks) [%] | average decrease of B-cell levels ([2]; at 18 weeks) [%] | patients with BILAG decreases continuing to at least 18 weeks ([2]; human, in vivo) [%] | tolerability ([2]; human, in vivo) | cytotoxicity [3] | effect of conjugation on antibody binding [4] | complete response/complete response unconfirmed rate [5, 6] [%] | objective response rate [5, 6] [%] | transient B-cell depletion ([5]; all dosage levels) | human anti-epratuzumab antibody (HAHA) in serum samples ([5]; human, in vivo) | objective responses continuing for 30 weeks or more ([5]; human, in vivo) | safety issues ([5]; reversible after interrupting therapy) |
| --- | --- | --- | --- | --- | --- | --- | --- | --- | --- | --- | --- | --- | --- | --- |
| COc1cccc2c1C(=O)c1c(O)c3c(c(O)c1C2=O)C[C@@](O)(C(=O)CO)C[C@@H]3O[C@H]1C[C@H](N2C=CCC2)[C@H](O)[C@H](C)O1 [2-pyrrolinodoxorubicin] | 500-1000 times |  |  |  |  |  |  |  |  |  |  |  |  |  |
| hLL2-P2PDox |  | at least 50% | 93 | 35 | 92 | well tolerated | cytotoxic | lack of effect of conjugation on antibody binding to target antigen | 24 | 47 | up to 25% | negative | Four of the eight | neutropenia up to Grade 3 |
